Laboratory results from BindingDB's records for doi:10.1021/jm2013826 (2012).

Target: Integrin alpha-IIb/beta-3 (Homo sapiens, UniProt P08514+P05106)
Assay: Inhibition of integrin alpha2bbeta3-mediated platelet aggregation in human TRAP-6-activated whole blood for 6 mins by impedence-based aggregometry

Sequence of Integrin alpha-IIb/beta-3 (P05106 27-788 limits assumed): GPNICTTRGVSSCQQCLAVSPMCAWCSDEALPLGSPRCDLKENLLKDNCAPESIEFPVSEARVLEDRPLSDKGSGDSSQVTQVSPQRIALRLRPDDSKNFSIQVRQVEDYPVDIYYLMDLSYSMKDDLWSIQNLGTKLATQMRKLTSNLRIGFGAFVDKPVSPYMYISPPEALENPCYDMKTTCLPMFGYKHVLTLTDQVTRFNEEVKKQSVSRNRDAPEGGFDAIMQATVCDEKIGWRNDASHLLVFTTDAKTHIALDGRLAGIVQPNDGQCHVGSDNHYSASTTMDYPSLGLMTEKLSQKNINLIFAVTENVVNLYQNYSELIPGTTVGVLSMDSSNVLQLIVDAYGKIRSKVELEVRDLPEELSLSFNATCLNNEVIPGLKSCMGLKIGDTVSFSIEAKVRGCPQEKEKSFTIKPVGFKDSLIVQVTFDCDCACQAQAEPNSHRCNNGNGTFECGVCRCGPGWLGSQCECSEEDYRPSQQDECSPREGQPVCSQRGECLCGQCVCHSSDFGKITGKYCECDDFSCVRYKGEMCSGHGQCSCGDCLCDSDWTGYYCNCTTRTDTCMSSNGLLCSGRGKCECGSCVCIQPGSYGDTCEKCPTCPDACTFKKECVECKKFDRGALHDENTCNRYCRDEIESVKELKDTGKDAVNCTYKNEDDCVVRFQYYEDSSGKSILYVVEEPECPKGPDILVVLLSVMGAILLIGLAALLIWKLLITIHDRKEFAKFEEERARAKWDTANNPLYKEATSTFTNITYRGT
Sequence of Integrin alpha-IIb/beta-3 (P08514 32-887 limits assumed): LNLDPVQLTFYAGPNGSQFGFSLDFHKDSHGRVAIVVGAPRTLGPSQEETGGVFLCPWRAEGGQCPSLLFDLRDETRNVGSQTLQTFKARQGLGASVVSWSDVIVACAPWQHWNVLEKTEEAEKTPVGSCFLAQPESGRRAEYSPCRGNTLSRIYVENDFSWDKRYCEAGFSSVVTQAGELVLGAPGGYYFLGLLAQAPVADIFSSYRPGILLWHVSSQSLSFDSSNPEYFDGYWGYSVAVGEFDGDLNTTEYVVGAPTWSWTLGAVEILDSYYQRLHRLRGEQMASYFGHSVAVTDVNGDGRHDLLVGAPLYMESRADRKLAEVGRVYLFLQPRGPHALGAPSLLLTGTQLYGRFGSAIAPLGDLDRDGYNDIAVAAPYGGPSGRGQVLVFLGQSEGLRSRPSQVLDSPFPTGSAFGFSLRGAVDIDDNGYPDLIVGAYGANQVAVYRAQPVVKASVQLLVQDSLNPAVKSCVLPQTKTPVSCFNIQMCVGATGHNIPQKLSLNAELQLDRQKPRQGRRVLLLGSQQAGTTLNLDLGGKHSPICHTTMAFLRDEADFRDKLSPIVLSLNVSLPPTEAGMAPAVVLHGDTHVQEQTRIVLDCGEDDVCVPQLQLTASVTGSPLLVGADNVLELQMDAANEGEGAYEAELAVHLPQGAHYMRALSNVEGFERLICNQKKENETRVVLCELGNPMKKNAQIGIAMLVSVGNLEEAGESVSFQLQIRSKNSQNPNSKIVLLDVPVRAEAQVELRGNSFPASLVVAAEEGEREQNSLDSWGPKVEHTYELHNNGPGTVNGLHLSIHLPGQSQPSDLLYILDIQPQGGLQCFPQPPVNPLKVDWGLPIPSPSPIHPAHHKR
Sequence of Integrin alpha-IIb/beta-3 (P08514 891-1039 limits assumed): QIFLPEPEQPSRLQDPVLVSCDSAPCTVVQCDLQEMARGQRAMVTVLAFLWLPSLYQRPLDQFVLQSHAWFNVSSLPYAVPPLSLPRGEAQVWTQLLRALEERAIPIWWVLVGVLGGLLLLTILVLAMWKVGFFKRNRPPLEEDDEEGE

Row | SMILES | EC50 [nM]
1 | COP(=O)(O)[C@H](CNC(=O)c1ccc(OCCC2CCNCC2)cc1)NS(=O)(=O)c1ccccc1 | 40.8
2 | O=C(NC[C@H](NS(=O)(=O)c1ccccc1)[PH](=O)O)c1ccc(OCCC2CCNCC2)cc1 | 7.8
3 | O=C(NC[C@H](NS(=O)(=O)c1ccccc1)P(=O)(O)O)c1ccc(OCCC2CCNCC2)cc1 | 276
